Several values for one entry are separate records, joined by “and”; a condition that tells them apart may be missing. Equal values may be shown once.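 Grown in 96-well plates, cells were treated for 48 hours with each compound at five concentrations. Insufficient inhibition: endpoint recorded as highest concentration tested. The concentration for 50% growth inhibition is given as GI50. Definition used: TGI = concentration required for complete inhibition of growth.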

Some test systems named below: A498 renal; CAKI-1 renal; HCC-2998 colon; M14 melanoma; MDA-MB-231 breast; NCI-H522 lung; SW-620 colon; T-47D breast; TK-10 renal; UO-31 renal.
Holding throughout (assay): growth of human tumour cells (NCI), 48 h

For the compound `Oc1cc(Br)cc2cc(Cl)cnc12`, the TGI in the experiment with A498 renal is 22.9 µM; with CAKI-1 renal, 85.9 µM; with HCC-2998 colon, 46.3 µM; with M14 melanoma it was 10.4 µM; in the experiment on MDA-MB-231 breast, > 100 µM; with NCI-H522 lung, 10.6 µM. For the same compound, the TGI is > 46.2 µM with SW-620 colon, 16.7 µM in the experiment on T-47D breast, > 94.3 µM in the experiment with TK-10 renal and 17.4 µM with UO-31 renal.

For the compound `O=c1ccc2ccc(O)cc2o1`, the TGI in the experiment with A498 renal, in the experiment with CAKI-1 renal, with HCC-2998 colon, in the experiment on M14 melanoma, with MDA-MB-231 breast and in the experiment on NCI-H522 lung was > 100 µM throughout. Besides, the TGI with SW-620 colon, in the experiment on T-47D breast, in the experiment on TK-10 renal and in the experiment on UO-31 renal was > 100 µM in each case.

As to `C=C(C(=O)O[C@H]1C(=O)C2=C(C)CCC3C(=C)C(=O)O[C@@H]3C2[C@]1(C)O)C1CC[C@]2(C)CCCC(=C)[C@H]2C1` (some centres undefined), the GI50 with A498 renal was 0.0282 µM; in the experiment on CAKI-1 renal, 3.67 µM; with M14 melanoma it was 5.74 µM; in the experiment on T-47D breast, 2.06 µM; with TK-10 renal, 6 µM. In addition, the TGI is 6.88 µM and 26.1 µM with A498 renal; 10.2 µM and 25.3 µM in the experiment on CAKI-1 renal; 9.68 µM in the experiment with HCC-2998 colon; 12.3 µM and 20.3 µM in the experiment on M14 melanoma; 13.8 µM in the experiment with MDA-MB-231 breast; 8.55 µM in the experiment with NCI-H522 lung. Further, the TGI with SW-620 colon was 21.2 µM; in the experiment with T-47D breast, 13.1 µM and 5.03 µM; with TK-10 renal it was 12.3 µM and 6.78 µM; with UO-31 renal, 12 µM and 16.5 µM.

As to `Brc1ccc2c(-c3csc(-c4c[nH]c5ccccc45)n3)c[nH]c2c1`, the TGI stood at 32.2 µM with A498 renal; 33.4 µM in the experiment with CAKI-1 renal; 30.9 µM with HCC-2998 colon; 27.3 µM in the experiment on M14 melanoma; 31 µM with MDA-MB-231 breast; 32.2 µM with NCI-H522 lung. The TGI with SW-620 colon was determined as 30.1 µM; with T-47D breast, 66.4 µM; in the experiment with TK-10 renal, 27.5 µM; in the experiment on UO-31 renal, 27.6 µM.

For `Cc1ccc(-n2cc([Si](C)(C)C)nn2)s1`, the TGI in the experiment on A498 renal, in the experiment on CAKI-1 renal, in the experiment with HCC-2998 colon, with M14 melanoma, in the experiment on MDA-MB-231 breast and in the experiment on NCI-H522 lung was > 100 µM each time. The TGI with SW-620 colon, with T-47D breast, with TK-10 renal and in the experiment with UO-31 renal was > 100 µM each time.

With `CC1=C(C)C(=O)C(C2=CC(=O)C=CC2=O)=C(C2=CC(=O)C=CC2=O)C1=O`, the TGI with A498 renal was > 100 µM; in the experiment on CAKI-1 renal it was > 56.6 µM; with HCC-2998 colon it was > 100 µM; in the experiment with M14 melanoma, > 100 µM; in the experiment on MDA-MB-231 breast, 42.5 µM; with NCI-H522 lung it was 64.7 µM. The TGI in the experiment on SW-620 colon was > 76.2 µM; in the experiment with T-47D breast, 77.5 µM; in the experiment with TK-10 renal, > 100 µM; in the experiment on UO-31 renal it was > 100 µM.

For `CC1(C)CCc2c(c(N=Nc3ccc(F)cc3)c3ccccc3c2O)O1`, the TGI in the experiment on A498 renal is 88.8 µM; in the experiment on CAKI-1 renal it was > 100 µM; in the experiment with HCC-2998 colon, 42.8 µM; in the experiment with M14 melanoma, 39.9 µM; with MDA-MB-231 breast, > 100 µM; in the experiment on NCI-H522 lung, > 100 µM. Also, the TGI in the experiment on SW-620 colon is > 100 µM; in the experiment on T-47D breast it was 86.8 µM; in the experiment on TK-10 renal, > 100 µM; in the experiment with UO-31 renal, > 100 µM.

For `CC(=O)OC1COC(Nc2nc(N)n(C)c(=O)c2N=O)C(OC(C)=O)C1OC(C)=O` (centres undefined), the TGI in the experiment on A498 renal, with CAKI-1 renal, with HCC-2998 colon, in the experiment with M14 melanoma, with MDA-MB-231 breast and in the experiment with NCI-H522 lung was > 10 µM each time. Also, the TGI in the experiment on SW-620 colon, in the experiment with T-47D breast and in the experiment with TK-10 renal was > 10 µM throughout.

As for `Cc1cc(S(=O)(=O)/N=C(/NN)NNc2cccc(C(F)(F)F)n2)c(S)cc1Cl`, the TGI was 50.1 µM in the experiment with A498 renal; 57.1 µM in the experiment with CAKI-1 renal; 31.2 µM in the experiment on HCC-2998 colon; 39.9 µM in the experiment on M14 melanoma; > 100 µM in the experiment on MDA-MB-231 breast; 60.4 µM in the experiment on NCI-H522 lung. Moreover, the TGI in the experiment with SW-620 colon was 39.3 µM; in the experiment with T-47D breast, 40.7 µM; in the experiment on TK-10 renal, 51.8 µM; with UO-31 renal, 37.2 µM.

With `Cc1sc2nc3n(c(=O)c2c1C)N=CN(c1ccc(F)cc1)C3`, the TGI in the experiment on A498 renal, in the experiment on CAKI-1 renal, with HCC-2998 colon, in the experiment on M14 melanoma, in the experiment with MDA-MB-231 breast and in the experiment on NCI-H522 lung was > 100 µM in each case. Besides, the TGI in the experiment on SW-620 colon, in the experiment on T-47D breast, in the experiment on TK-10 renal and in the experiment with UO-31 renal was > 100 µM in each case.

In the case of `O=[N+]([O-])C(Cl)=C/C(=C(\Cl)SCc1ccccc1)[N+](=O)[O-]`, the TGI with A498 renal is 81.4 µM; with CAKI-1 renal it was 34.2 µM; in the experiment with HCC-2998 colon it was 77.6 µM; in the experiment with M14 melanoma, 53.8 µM; with MDA-MB-231 breast it was 59.3 µM; in the experiment with NCI-H522 lung, 46.2 µM. For the same compound, the TGI with SW-620 colon is 59.3 µM; in the experiment with T-47D breast, 40.2 µM; in the experiment with TK-10 renal it was 48.3 µM; in the experiment with UO-31 renal, 40.2 µM.

Consider `CN1CCN(C2=CC(=O)c3c(O)ccc(O)c3C2=O)CC1`, for which the TGI in the experiment on A498 renal amounted to 2.87 µM; in the experiment with CAKI-1 renal, 3.08 µM; with HCC-2998 colon it was 3.23 µM; with M14 melanoma it was 1.94 µM; in the experiment on MDA-MB-231 breast, 3.1 µM; in the experiment on NCI-H522 lung it was 3.17 µM. For the same compound, the TGI came to 1.89 µM in the experiment on SW-620 colon, 2.04 µM in the experiment on T-47D breast, 4.22 µM in the experiment with TK-10 renal and 2.92 µM in the experiment on UO-31 renal.

Turning to `CCN1CCC(O)(/C=C/c2ccc(C(C)C)cc2)C(C(=O)/C=C/c2ccc(C(C)C)cc2)C1` (centres undefined), the TGI was 19.1 µM in the experiment on A498 renal; 8.86 µM in the experiment on CAKI-1 renal; 3.64 µM in the experiment with HCC-2998 colon; > 40.5 µM with M14 melanoma; 3.82 µM in the experiment with MDA-MB-231 breast; 4.21 µM with NCI-H522 lung. The TGI in the experiment on SW-620 colon came out at 7.25 µM; with T-47D breast, 6.19 µM; in the experiment with TK-10 renal, 6.16 µM; with UO-31 renal, 7.88 µM.
